Consider 21 molecules from article PMC10207366, “Screening and Biological Evaluation of Soluble Epoxide Hydrolase Inhibitors: Assessing the Role of Hydrophobicity in the Pharmacophore-Guided Search of Novel Hits” (Journal of Chemical Information and Modeling, 2023).

Where two headings read alike, the source gives them in different places. Where only a bound is given, the exact number is not on record here.

One assay deals with T1, rat sEH (rsEH) (Rattus norvegicus, UniProt P80299).
T1 sequence (P80299 1-554): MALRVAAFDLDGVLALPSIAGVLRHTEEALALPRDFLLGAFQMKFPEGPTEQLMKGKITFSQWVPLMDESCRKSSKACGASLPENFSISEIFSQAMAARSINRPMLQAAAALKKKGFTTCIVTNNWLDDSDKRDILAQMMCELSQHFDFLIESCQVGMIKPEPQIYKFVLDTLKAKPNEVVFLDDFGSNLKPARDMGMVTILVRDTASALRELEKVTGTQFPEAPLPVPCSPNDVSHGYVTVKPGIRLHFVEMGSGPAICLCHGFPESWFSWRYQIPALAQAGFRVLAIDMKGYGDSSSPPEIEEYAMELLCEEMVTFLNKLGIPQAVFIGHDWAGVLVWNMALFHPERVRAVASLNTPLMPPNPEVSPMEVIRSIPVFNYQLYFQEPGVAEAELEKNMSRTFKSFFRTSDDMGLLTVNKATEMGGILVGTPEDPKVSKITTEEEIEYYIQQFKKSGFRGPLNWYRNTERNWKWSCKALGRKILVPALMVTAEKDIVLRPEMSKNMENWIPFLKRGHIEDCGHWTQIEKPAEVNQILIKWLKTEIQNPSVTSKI
Kind of assay: fluorescence-based sEH IC50 assay (CMNPC substrate). Format: biochemical. The conditions noted are these: experimental. As for the experimental part:
(§1) The IC50 values of the 18 compounds selected from the log P + HB and QE + R3 pharmacophore ranking were determined using a fluorescence-based assay[68] with either purified recombinant hsEH, mouse sEH (msEH), or rat sEH (rsEH). The enzyme was incubated at 30 °C with the inhibitors ([I]final = 0.4–50,000 nM) for 5 min in 100 mM sodium phosphate buffer (200 μL, pH 7.4) containing 0.1 mg/mL of […] (BSA) and 1% dimethyl sulfoxide (DMSO). The substrate (cyano(6-methoxynaphthalen-2-yl)methyl((3-phenyloxiran-2-yl)methyl)carbonate; CMNPC) was then added ([S]final = 5 μM). The activity was assessed by measuring the appearance of the fluorescent 6-methoxynaphthaldehyde product (λex = 330 nm, λem = 465 nm) every 30 s for 10 min at 30 °C on a SpectraMax M2 (Molecular Devices, CA). The results were obtained by regression analysis from a linear region of the curve.

A further assay concerns the target T2, mouse sEH (msEH) (Mus musculus, UniProt P34914).
T2 sequence (P34914 1-554): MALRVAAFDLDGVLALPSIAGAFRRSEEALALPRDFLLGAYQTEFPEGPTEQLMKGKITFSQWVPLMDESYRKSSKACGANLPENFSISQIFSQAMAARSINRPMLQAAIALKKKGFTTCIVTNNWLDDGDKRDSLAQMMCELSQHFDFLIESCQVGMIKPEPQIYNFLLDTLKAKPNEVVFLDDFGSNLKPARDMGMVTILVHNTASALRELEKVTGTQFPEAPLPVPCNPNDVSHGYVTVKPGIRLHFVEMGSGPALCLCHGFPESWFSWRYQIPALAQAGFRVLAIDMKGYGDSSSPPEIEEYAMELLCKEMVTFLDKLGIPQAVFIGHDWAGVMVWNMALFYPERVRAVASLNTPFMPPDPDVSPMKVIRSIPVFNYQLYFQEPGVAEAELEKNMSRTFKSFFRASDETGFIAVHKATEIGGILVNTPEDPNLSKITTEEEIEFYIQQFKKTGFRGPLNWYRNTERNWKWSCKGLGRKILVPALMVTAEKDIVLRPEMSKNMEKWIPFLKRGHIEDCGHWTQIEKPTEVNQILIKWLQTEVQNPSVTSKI
Described as above. Format: biochemical. The note with it: experimental. As for the experimental part:
as §1

The target of assay [1] is T3, purified recombinant hsEH (Homo sapiens, UniProt P34913).
T3 sequence (P34913 1-555): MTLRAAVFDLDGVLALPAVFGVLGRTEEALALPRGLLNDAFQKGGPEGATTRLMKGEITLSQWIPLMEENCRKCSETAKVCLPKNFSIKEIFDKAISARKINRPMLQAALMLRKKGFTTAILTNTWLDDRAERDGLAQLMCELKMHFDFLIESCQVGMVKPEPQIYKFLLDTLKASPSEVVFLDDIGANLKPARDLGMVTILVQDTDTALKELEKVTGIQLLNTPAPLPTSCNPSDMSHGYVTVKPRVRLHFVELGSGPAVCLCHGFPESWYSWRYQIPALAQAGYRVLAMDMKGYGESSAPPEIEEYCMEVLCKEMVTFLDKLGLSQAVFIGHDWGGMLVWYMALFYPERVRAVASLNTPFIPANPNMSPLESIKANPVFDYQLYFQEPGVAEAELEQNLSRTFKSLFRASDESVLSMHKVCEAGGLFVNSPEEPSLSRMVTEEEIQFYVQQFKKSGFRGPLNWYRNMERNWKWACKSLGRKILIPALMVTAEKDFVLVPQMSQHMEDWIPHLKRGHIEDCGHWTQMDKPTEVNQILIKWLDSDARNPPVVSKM
The description is as above. Format: biochemical. On the procedure:
as §1

Another assay has as its system hsEH. The note with it: training set, Table S1; ref reference publication (DOI) of Table S1; cited from earlier work.
Setting [2] is: experimental, human sEH, read-out: pIC50 hsEH (converted).

Take `CC(C(=O)NC(=O)NC12CC3CC(CC(C3)C1)C2)N1CCN(C(=O)C2COc3ccccc3O2)CC1` (stereo not shown) [Z65159029, CC(C(=O)NC(=O)NC12CC3CC(CC(C3)C1)C2)N1CCN(C(=O)C2COc3ccccc3O2)CC1]: the IC50 at rat sEH (rsEH) is 2000 nM; against mouse sEH (msEH) it was 20000 nM; in assay [1] (setting [2]), 5010 nM.

For the molecule `O=C(NNC(=O)c1ccc(COc2ccccc2)cc1)NC12CC3CC(CC(C3)C1)C2` [Z44611499, O=C(NNC(=O)c1ccc(COc2ccccc2)cc1)NC12CC3CC(CC(C3)C1)C2], the IC50 against rat sEH (rsEH) was 20 nM; against mouse sEH (msEH), 126 nM; in assay [1] (setting [2]), 6.31 nM; in assay [1] (human enzyme, read-out: IC50 hsEH) it was below 20 nM.

As a reminder, the pIC50 is −log10 of the IC50, conventionally taken in molar units. In the case of `O=C(NC[C@H]1COc2ccccc2O1)c1ccc2c(c1)N(Cc1cccc(Cl)c1)C(=O)CS2` [TR_mol17, 4-[(3-chlorophenyl)methyl]-N-[[(3S)-2,3-dihydro-1,4-benzodioxin-3-yl]methyl]-3-oxidanylidene-1,4-benzothiazine-6-carboxamide], the pIC50 in the assay on hsEH was 7.5.

Take `O=C(Nc1ccc2c(c1)-c1ccccc1S2(=O)=O)N1CCC(F)(F)CC1` [TR_mol15, N-(5,5-dioxodibenzothiophen-2-yl)-4,4-difluoro-piperidine-1-carboxamide]: the negative logarithm of the IC50 (pIC50) in the assay with hsEH is given as 7.8.

`O=C(NC1CCC(Oc2ccc(C(=O)O)cc2)CC1)NC12CC3CC(CC(C3)C1)C2` (stereo not drawn) [TR_mol5, 4-[(trans-4-{[(3s,5s,7s)-tricyclo[3.3.1.1∼3,7∼]dec-1-ylcarbamoyl]amino}cyclohexyl)oxy]benzoic acid]: the negative-log IC50 (pIC50) in the assay on hsEH is reported as 8.9.

As for `O=C(NCc1ccc(N2CCCC2=O)cc1)NCc1cccc(C(F)(F)F)c1` [Z211761694, O=C(NCc1ccc(N2CCCC2=O)cc1)NCc1cccc(C(F)(F)F)c1], the IC50 on rat sEH (rsEH) was 200 nM; at mouse sEH (msEH) it was 501 nM; in assay [1] (setting [2]), 200 nM.

Consider `O=C(O)CCCNC(=O)NC1CCCCC1` [TR_mol23], for which the negative-log IC50 (pIC50) in the assay on hsEH was 3.3.

Regarding `O=C(O)CCCCCNC(=O)NC1CCCCC1` [TR_mol33], the negative-log IC50 (pIC50) with hsEH was 3.6.

Consider `CC1CCCCC1OCCNC(=O)Nc1cccc(OCc2ccccn2)c1` (stereo not shown) [Z416144030, CC1CCCCC1OCCNC(=O)Nc1cccc(OCc2ccccn2)c1], for which the values for the IC50 (against rat sEH (rsEH); on mouse sEH (msEH); in assay [1] (setting [2])) were 20 nM, 200 nM and 15.8 nM, respectively.

With `O=C(NCCC(c1ccccc1)c1ccccc1)NC1CCCCC1` [AK-968/41927527, O=C(NCCC(c1ccccc1)c1ccccc1)NC1CCCCC1], the figures for the IC50 (against rat sEH (rsEH); against mouse sEH (msEH); in assay [1] (setting [2])) were 0.398 nM, 1.26 nM and 0.398 nM, respectively. Besides, the “IC50 hsEH” value in assay [1] (human enzyme) is “subnanomolar”.

Take `O=C(COC(=O)c1ccc(N2CCCC2=O)cc1)NC(=O)NC12CC3CC(CC(C3)C1)C2` [Z23294293, O=C(COC(=O)c1ccc(N2CCCC2=O)cc1)NC(=O)NC12CC3CC(CC(C3)C1)C2]: the results for the IC50 (on rat sEH (rsEH); on mouse sEH (msEH); in assay [1] (setting [2])) were 39.8 nM, 631 nM and 100 nM, respectively.

Regarding `NC(=O)COc1ccc(NC(=O)NCCC(c2ccccc2)c2ccccc2)cc1` [Z339843288, NC(=O)COc1ccc(NC(=O)NCCC(c2ccccc2)c2ccccc2)cc1], the IC50 was 1 nM at rat sEH (rsEH), 1.26 nM at mouse sEH (msEH) and 1.26 nM in assay [1] (setting [2]).

For the molecule `CC1CCC(NC(=O)Nc2cccc(Cn3nc4ccccn4c3=O)c2)CC1` (stereo not shown) [Z436130862, CC1CCC(NC(=O)Nc2cccc(Cn3nc4ccccn4c3=O)c2)CC1], the results for the IC50 (against rat sEH (rsEH); on mouse sEH (msEH); in assay [1] (setting [2])) were 1 nM, 1 nM and 0.794 nM, respectively. Also, the “IC50 hsEH” value in assay [1] (human enzyme) is on record as “subnanomolar”.

For `O=C(CSc1nc(-c2ccccc2)cn1-c1ccccc1)NC(=O)Nc1ccccc1` [AO-476/43362680, O=C(CSc1nc(-c2ccccc2)cn1-c1ccccc1)NC(=O)Nc1ccccc1], the results for the IC50 (at rat sEH (rsEH); against mouse sEH (msEH); in assay [1] (setting [2])) were 25100 nM, 25100 nM and 3980 nM, respectively.

Turning to `CC(=O)CCc1ccc(OCC(=O)N2CCCC(CNC(=O)Nc3ccc(C)cc3)C2)cc1` (stereo not shown) [Z1033382608, CC(=O)CCc1ccc(OCC(=O)N2CCCC(CNC(=O)Nc3ccc(C)cc3)C2)cc1], the values for the IC50 (on rat sEH (rsEH); against mouse sEH (msEH); in assay [1] (setting [2])) were 398 nM, 3160 nM and 501 nM, respectively.

Turning to `O=C(NCc1ccc(-c2nc3ccccc3s2)o1)NC1CCCC(C(F)(F)F)C1` (stereo not shown) [Z353003074, O=C(NCc1ccc(-c2nc3ccccc3s2)o1)NC1CCCC(C(F)(F)F)C1], the IC50 on rat sEH (rsEH) was 5.01 nM; on mouse sEH (msEH) it was 10 nM; in assay [1] (setting [2]), 6.31 nM.

Regarding `O=C(NCCC(=O)N1CCN(S(=O)(=O)c2ccccc2F)CC1)NC12CC3CC(CC(C3)C1)C2` [Z29532165, O=C(NCCC(=O)N1CCN(S(=O)(=O)c2ccccc2F)CC1)NC12CC3CC(CC(C3)C1)C2], the IC50 was 39.8 nM against rat sEH (rsEH), 398 nM at mouse sEH (msEH) and 501 nM in assay [1] (setting [2]).

Take `CC(NC(=O)NCc1ccc(N2CCCC2=O)cc1)c1cccc(Cl)c1` (stereo not shown) [Z211852480, CC(NC(=O)NCc1ccc(N2CCCC2=O)cc1)c1cccc(Cl)c1]: the IC50 at rat sEH (rsEH) is 501 nM; at mouse sEH (msEH) it was 631 nM; in assay [1] (setting [2]), 126 nM.

With `Cc1ccc(C(C)C)c(OCc2ccc(C(=O)NNC(=O)NC34CC5CC(CC(C5)C3)C4)o2)c1` [AK-968/15603026, Cc1ccc(C(C)C)c(OCc2ccc(C(=O)NNC(=O)NC34CC5CC(CC(C5)C3)C4)o2)c1], the IC50 on rat sEH (rsEH) was 39.8 nM; at mouse sEH (msEH), 316 nM; in assay [1] (setting [2]), 126 nM.

As to `CC(C)N1CCC(NC(=O)NCCC(c2ccccc2)c2ccccc2)CC1` [Z339670416, CC(C)N1CCC(NC(=O)NCCC(c2ccccc2)c2ccccc2)CC1], the IC50 against rat sEH (rsEH) is 501 nM; against mouse sEH (msEH), 1580 nM; in assay [1] (setting [2]), 100 nM.

`O=C(N/N=C/c1c2ccccc2cc2ccccc12)NC12CC3CC(CC(C3)C1)C2` [AK-968/40204236, O=C(N/N=C/c1c2ccccc2cc2ccccc12)NC12CC3CC(CC(C3)C1)C2]: on rat sEH (rsEH), the “pIC50 rsEH” value is 6.5. For the same molecule, at mouse sEH (msEH), the “pIC50 msEH” value turned out to be 5.8.
